Laboratory results as given in patent US8440694B2, “Quinoline compounds suitable for treating disorders that respond to modulation of the serotonin-5-HT6 receptor” (Abbott GmbH & Co. KG, priority 2007, dated 2013).
Counter-ions that a name gives are not always drawn.

Target: T1, h-5-HT6 receptor (Homo sapiens, UniProt P50406)
T1 construct: expressed in transfected cells
Experiment: 5-HT6 receptor binding assay (displacement of [3H]-LSD)
Conditions: membranes of HEK293 cells stably expressing h-5-HT6 receptor, [3H]-LSD displacement
Experimental: Displacement of Radioligands Binding to the Following Cloned Human Receptors
Cells from stable clonal cell lines expressing the corresponding receptor (5-HT6, α1-adrenergic, dopamine D2 or histamine H1 receptors) were washed with PBS (w/o Ca^++, Mg^++) and harvested in PBS with 0.02% EDTA. The cells were collected by centrifugation at 500 g for 10 min. at 4° C., washed with PBS and centrifuged (500 g, 10 min. 4° C.). The pellets were stored at −80° C. until use. For membrane preparation, the thawed cell pellet was resuspended in ice-cold sucrose buffer (0.25 M sucrose, 10 mM Hepes (pH 7.4), 1 mM Phenylmethylsulfonyl fluoride (PMSF) in DMSO, 5 μg/ml Pepstatin-A, 3 mM EDTA, 0.025% Bacitracin) and homogenized with a Branson Sonifier W-250 (Settings: Timer 4; Output Control 3; Duty Cycle constant; 2 to 3 cycles). Cell disruption was checked with the aid of a microscope. Remaining unbroken cells were pelleted at 1.000 g for 10 min. at 4° C. The sucrose buffer supernatant was then centrifuged at 60.000 g for 1 h at 4° C. (Beckman Ultrazentrifuge XL 80). The pellet was resuspended in 30 ml ice-cold Tris buffer (20 mM TRIS (pH 7.4), 5 μg/ml Pepstatin A, 0.1 mM PMSF, 3 mM EDTA) by pipetting through a 10 ml serological pipet and centrifuged for 1 h at 4° C. at 60.000 g. A final resuspension was performed in a small volume of ice-cold Tris buffer (see above) by pressing through a serological pipet followed by ultrasonic treatment with a Branson Sonifier W-250 (Settings: Timer 1; Output Control 3; Duty Cycle constant; 1 cycle). Protein concentration was determined (BCA-Kit; Pierce) and aliquots stored at −80° C. or in liquid nitrogen for long-term storage.
All receptor binding experiments were carried out in the corresponding assay buffer in a total volume of 200 μl in the presence of various concentrations of test compound (10^−5 M to 10^−9 M, tenfold serial dilution, duplicate determinations). The assays were terminated by filtration on polyethylenimine (PEI 0.1% or 0.3%) presoaked Packard Unifilter Plates (GF/C or GF/B) with a Tomtec MachIII U 96well-plate harvester. After the plates had been dried for 2 h at 55° C. in a drying chamber scintillation cocktail (BetaPlate Scint; PerkinElmer) was added. Radioactivity was measured in a Microbeta Trilux two hours after the addition of the scintillation mixture. Data derived from liquid scintillation counting were analysed by iterative non-linear regression analysis with the use of the Statistical Analysis System (SAS): a program similar to “LIGAND” as described by Munson and Rodbard (Analytical Biochemistry 107, 220-239 (1980).
HEK293 cells stably expressing the h-5-HT6 receptor (NCBI Reference Sequence XM 001435) were cultured in RPMI1640 medium supplemented with 25 mM HEPES, 10% fetal calf serum and 1-2 mM glutamine. The membrane preparation was performed as described in section 1. […] Non-specific binding was defined with 1 μM methiothepin. The binding reaction was carried out for 3.5 h at room temperature. During the incubation, the plates were shaken on a plate shaker at 100 rpm and terminated by filtration on Packard Unifilter GF/C (0.1% PEI) plates, followed by 2 wash cycles with ice-cold 50 mM Tris-HCl, 5 mM CaCl2.
Data derived from liquid scintillation counting were analyzed by iterative non-linear regression analysis with the use of the Statistical Analysis System (SAS): a program similar to “LIGAND” as described by Munson and Rodbard (Anal. Biochem. 1980, 107, 220-239). Fitting was performed according to formulae described by Feldman (Anal. Biochem. 1972, 48, 317-338). IC50, nH and Ki values were expressed as geometrical mean.

T1 sequence (P50406 whole entry): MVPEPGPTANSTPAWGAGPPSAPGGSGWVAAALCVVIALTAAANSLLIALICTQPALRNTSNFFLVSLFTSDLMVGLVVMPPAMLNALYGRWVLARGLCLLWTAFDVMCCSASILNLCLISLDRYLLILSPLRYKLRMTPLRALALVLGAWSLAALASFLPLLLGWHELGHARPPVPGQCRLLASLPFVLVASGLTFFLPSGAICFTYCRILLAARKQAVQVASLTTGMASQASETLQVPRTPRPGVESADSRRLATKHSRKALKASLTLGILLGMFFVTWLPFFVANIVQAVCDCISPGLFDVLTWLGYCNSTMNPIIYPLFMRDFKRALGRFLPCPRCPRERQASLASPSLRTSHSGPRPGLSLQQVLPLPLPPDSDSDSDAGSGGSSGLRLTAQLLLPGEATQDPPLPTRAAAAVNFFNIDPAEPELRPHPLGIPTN

| Ki [nM] | SMILES |
| --- | --- |
| < 10 | O=S(=O)(c1cccc(F)c1)c1cnc2c(N3CC[C@H]4CNC[C@H]43)cccc2c1 [Example 26, 3-(3-Fluoro-benzenesulfonyl)-8-(3aS,6aS)-hexahydropyrrolo[3,4-b]pyrrol-1-yl-quinoline hydrochloride] |
| < 10 | O=S(=O)(c1cccc(C(F)(F)F)c1)c1cnc2c(N3CC4CCNC4C3)cccc2c1 (stereo not drawn) [Example 22, 8-(hexahydropyrrolo[3,4-b]pyrrol-5(1H)-yl)-3-(3-(trifluoromethyl)-phenylsulfonyl)quinoline] |
| < 10 | O=S(=O)(c1cccc(F)c1)c1cnc2c(N3CC4CCCNC4C3)cccc2c1 (stereo not drawn) [Example 31, 6-(3-(3-fluorophenylsulfonyl)quinolin-8-yl)octahydro-1H-pyrrolo[3,4-b]pyridin-1-ium chloride] |
| < 10 | O=S(=O)(c1cccc(F)c1)c1cnc2c(N3C[C@H]4CNC[C@H]4C3)cccc2c1 [Example 30, 3-(3-Fluoro-benzenesulfonyl)-8-(3aR,6aS)-hexahydro-pyrrolo[3,4-c]pyrrol-2-yl-quinoline hydrochloride] |
| < 10 | O=S(=O)(c1cccc(OC(F)(F)F)c1)c1cnc2c(N3CC4CNCC4C3)cccc2c1 (stereo not drawn) [Example 16, 8-(hexahydropyrrolo[3,4-c]pyrrol-2(1H)-yl)-3-(3-(trifluoromethoxy)-phenylsulfonyl)quinoline] |
| < 10 | O=S(=O)(c1ccc(F)cc1)c1cnc2c(N3CC4CCNCC4C3)cccc2c1 (stereo not drawn) [Example 13, 3-(4-fluorophenylsulfonyl)-8-(1H-pyrrolo[3,4-c]pyridin-2(3H,3aH,4H,5H,6H,7H,7aH)-yl)quinoline] |
| < 50 | CC(C)(C)OC(=O)N1CC2CN(c3cccc4cc(S(=O)(=O)c5cccc(OC(F)(F)F)c5)cnc34)CC2C1 (stereo not drawn) [Example 15, tert-butyl 5-(3-(3-(trifluoromethoxy)phenylsulfonyl)quinolin-8-yl)hexahydropyrrolo[3,4-c]pyrrole-2 (1H)-carboxylate] |
| < 10 | O=S(=O)(c1ccccc1)c1cnc2c(N3CC4CCNCC4C3)cccc2c1 (stereo not drawn) [Example 4, 3-(Phenylsulfonyl)-8-(1H-pyrrolo[3,4-c]pyridin-2(3H,3aH,4H,5H,6H,-7H,7aH)-yl)quinoline] |
| < 250 | O=S(=O)(c1ccccc1)c1cnc2c(N3CCCC4NCCCC43)cccc2c1 (stereo not drawn) [Example 10, 1-(3-(phenylsulfonyl)quinolin-8-yl)decahydro-1,5-naphthyridine] |
| < 250 | O=C(OCc1ccccc1)N1CC2CN(c3cccc4cc(S(=O)(=O)c5ccccc5)cnc34)C2C1 (stereo not drawn) [Example 2, Benzyl 6-(3-(phenylsulfonyl)quinolin-8-yl)-3,6-diazabicyclo[3.2.0]heptane-3-carboxylate] |
| < 10 | O=S(=O)(c1cccc(C(F)(F)F)c1)c1cnc2c(N3C[C@H]4CNC[C@H]4C3)cccc2c1 [Example 24, 8-((3aR,6aS)-hexahydropyrrolo[3,4-c]pyrrol-2(1H)-yl)-3-(3-(trifluoromethyl)phenylsulfonyl)quinoline] |
| < 10 | O=S(=O)(c1ccc(F)cc1)c1cnc2c(N3CC4CCNC4C3)cccc2c1 (stereo not drawn) [Example 39, 3-(4-fluorophenylsulfonyl)-8-(hexahydropyrrolo[3,4-b]pyrrol-5(1H)-yl)quinoline] |
| < 10 | O=S(=O)(c1ccc(F)cc1)c1cnc2c(N3CC4CNCC4C3)cccc2c1 (stereo not drawn) [Example 14, 3-(4-fluorophenylsulfonyl)-8-(hexahydropyrrolo[3,4-c]pyrrol-2(1H)-yl)quinoline] |
| < 10 | O=S(=O)(c1cccc(F)c1)c1cnc2c(N3C[C@@H]4CN[C@@H]4C3)cccc2c1 [Example 32, (1S,5S)-3-(3-(3-fluorophenylsulfonyl)quinolin-8-yl)-3-aza-6-azoniabicyclo[3.2.0]heptane hydrochloride] |
| < 50 | CN1CCC2CN(c3cccc4cc(S(=O)(=O)c5ccccc5)cnc34)CC2C1 (stereo not drawn) [Example 41, 8-(5-methyl-1H-pyrrolo[3,4-c]pyridin-2(3H,3aH,4H,5H,6H,7H,7aH)-yl)-3] |
| < 250 | O=S(=O)(c1ccccc1)c1cnc2c(N3CCC4NC5CCCCC5C4C3)cccc2c1 (stereo not drawn) [Example 42, 2-(3-(phenylsulfonyl)quinolin-8-yl)dodecahydro-1H-pyrido[4,3-b]indole] |
| < 10 | O=S(=O)(c1ccccc1)c1cnc2c(N3CC4CNCC4C3)cccc2c1 (stereo not drawn) [Example 43, 8-(hexahydropyrrolo[3,4-c]pyrrol-2(1H)-yl)-3-(phenylsulfonyl)quinoline] |
| < 10 | O=S(=O)(c1ccccc1)c1cnc2c(N3CC4CCNC4C3)cccc2c1 (stereo not drawn) [Example 1, 8-(Hexahydropyrrolo[3,4-b]pyrrol-5(1H)-yl)-3-(phenylsulfonyl)quinoline hydrochloride] |
| < 10 | O=S(=O)(c1cccc(N2CC3CNCC3C2)c1)c1cnc2c(N3CC4CNCC4C3)cccc2c1 (stereo not drawn) [Example 18, 8-(hexahydropyrrolo[3,4-c]pyrrol-2(1H)-yl)-3-(3-(hexahydropyrrolo[3,4-c]pyrrol-2(1H)-yl)phenylsulfonyl)quinoline] |
| < 250 | CC(C)(C)OC(=O)N1CCC2CN(c3cccc4cc(S(=O)(=O)c5ccccc5)cnc34)CC2C1 (stereo not drawn) [Example 3, tert-butyl 2-(3-(phenylsulfonyl)quinolin-8-yl)hexahydro-1H-pyrrolo[3,4-c]pyridine-5(6H)-carboxylate] |
| < 10 | O=S(=O)(c1cccc(F)c1)c1cnc2c(N3CC4CCNC4C3)cccc2c1 (stereo not drawn) [Example 29, 3-(3-Fluoro-benzenesulfonyl)-8-(hexahydro-pyrrolo[3,4-b]pyrrol-5-yl)-quinoline hydrochloride] |
| < 10 | O=S(=O)(c1ccccc1)c1cnc2c(N3CC4CN(Cc5ccccc5)CC4C3)cccc2c1 (stereo not drawn) [Example 40, 8-(5-benzylhexahydropyrrolo[3,4-c]pyrrol-2(1H)-yl)-3-(phenylsulfonyl)-quinoline] |
| < 10 | O=S(=O)(c1ccccc1)c1cnc2c(N3CC[C@H]4CNC[C@H]43)cccc2c1 [Example 12, 8-((3aS,6aS)-hexahydropyrrolo[3,4-b]pyrrol-1(2H)-yl)-3-(phenylsulfonyl)-quinoline] |
| < 10 | O=S(=O)(c1cccc(OC(F)(F)F)c1)c1cnc2c(N3CC4CCNCC4C3)cccc2c1 (stereo not drawn) [Example 20, 8-(1H-pyrrolo[3,4-c]pyridin-2(3H,3aH,4H,5H,6H,7H,7aH)-yl)-3-(3-(trifluoromethoxy)phenylsulfonyl)quinoline] |
| < 10 | O=S(=O)(c1cccc(F)c1)c1cnc2c(N3C[C@H]4CN[C@H]4C3)cccc2c1 [Example 28, 8-(1R,5R)-3,6-Diaza-bicyclo[3.2.0]hept-3-yl-3-(3-fluoro-benzenesulfonyl)-quinoline hydrochloride] |
| < 50 | CC(C)(C)OC(=O)N1CCC2CN(c3cccc4cc(S(=O)(=O)c5cccc(OC(F)(F)F)c5)cnc34)CC2C1 (stereo not drawn) [Example 19, tert-butyl 2-(3-(3-(trifluoromethoxy)phenylsulfonyl)quinolin-8-yl)hexahydro-1H-pyrrolo[3,4-c]pyridine-5(6H)-carboxylate] |
| < 10 | O=S(=O)(c1cccc(C(F)(F)F)c1)c1cnc2c(N3CC4CCNCC4C3)cccc2c1 (stereo not drawn) [Example 44, 8-(1H-pyrrolo[3,4-c]pyridin-2(3H,3aH,4H,5H,6H,7H,7aH)-yl)-3-(3-(trifluoromethyl)phenylsulfonyl)quinoline] |
